Test results as given in ChEMBL document CHEMBL4507283, “Data for DCP probe BI-1935” (2021).

Key:
[1] = molecular target: T1, Sodium-dependent dopamine transporter (Homo sapiens, UniProt Q01959); test: GPCRScan assay: inhibition of DAT; set-up: radioligand conc. used [nm] 3.6 – 16.0, parental cells stable HEK
[2] = molecular target: T2, Bifunctional epoxide hydrolase 2 (Homo sapiens, UniProt P34913); test: Human soluble epoxide hydrolase inhibition
T2 sequence (P34913 whole entry): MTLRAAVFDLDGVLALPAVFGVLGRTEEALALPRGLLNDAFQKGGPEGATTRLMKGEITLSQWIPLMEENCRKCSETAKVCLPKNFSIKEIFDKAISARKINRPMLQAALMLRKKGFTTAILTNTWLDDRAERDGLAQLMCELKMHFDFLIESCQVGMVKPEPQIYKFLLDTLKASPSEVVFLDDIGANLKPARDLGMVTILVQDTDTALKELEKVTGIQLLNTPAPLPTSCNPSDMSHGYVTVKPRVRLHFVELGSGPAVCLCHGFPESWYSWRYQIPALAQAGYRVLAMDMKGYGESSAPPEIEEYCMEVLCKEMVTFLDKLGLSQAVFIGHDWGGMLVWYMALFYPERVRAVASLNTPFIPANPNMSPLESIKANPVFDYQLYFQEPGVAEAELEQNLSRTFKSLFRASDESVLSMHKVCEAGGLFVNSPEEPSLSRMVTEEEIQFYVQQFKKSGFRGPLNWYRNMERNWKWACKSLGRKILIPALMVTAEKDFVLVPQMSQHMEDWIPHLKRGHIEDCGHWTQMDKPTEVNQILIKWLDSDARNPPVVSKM

[3] = molecular target: 5-hydroxytryptamine receptor 1A (Homo sapiens) (UniProt P08908); details: Compound concentration 10.0 uM
[4] = molecular target: 5-hydroxytryptamine receptor 1B (Homo sapiens) (UniProt P28222); details: Compound concentration 10.0 uM
[5] = molecular target: 5-hydroxytryptamine receptor 1D (Homo sapiens) (UniProt P28221); details: Compound concentration 10.0 uM
[6] = molecular target: 5-hydroxytryptamine receptor 1E (Homo sapiens) (UniProt P28566); details: Compound concentration 10.0 uM
[7] = molecular target: 5-hydroxytryptamine receptor 2A (Homo sapiens) (UniProt P28223); details: Compound concentration 10.0 uM
[8] = molecular target: 5-hydroxytryptamine receptor 2B (Homo sapiens) (UniProt P41595); details: Compound concentration 10.0 uM
[9] = molecular target: T3, 5-hydroxytryptamine receptor 3A (Homo sapiens) (UniProt P46098); details: Compound concentration 10.0 uM
T3 sequence (whole entry): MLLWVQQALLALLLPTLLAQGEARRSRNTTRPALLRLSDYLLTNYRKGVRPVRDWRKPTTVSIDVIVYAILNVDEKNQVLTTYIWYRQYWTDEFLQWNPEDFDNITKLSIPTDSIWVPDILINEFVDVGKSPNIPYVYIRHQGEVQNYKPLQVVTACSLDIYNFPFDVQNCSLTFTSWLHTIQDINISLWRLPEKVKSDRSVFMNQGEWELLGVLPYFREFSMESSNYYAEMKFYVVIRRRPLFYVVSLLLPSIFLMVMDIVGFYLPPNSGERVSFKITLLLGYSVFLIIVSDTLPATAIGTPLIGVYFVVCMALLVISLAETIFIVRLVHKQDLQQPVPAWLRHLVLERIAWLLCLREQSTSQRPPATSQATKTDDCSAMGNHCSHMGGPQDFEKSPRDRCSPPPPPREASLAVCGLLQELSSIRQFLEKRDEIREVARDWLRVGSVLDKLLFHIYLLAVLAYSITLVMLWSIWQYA

[10] = molecular target: 5-hydroxytryptamine receptor 5A (Homo sapiens) (UniProt P47898); details: Compound concentration 10.0 uM
[11] = molecular target: 5-hydroxytryptamine receptor 7 (Homo sapiens) (UniProt P34969); details: Compound concentration 10.0 uM
[12] = molecular target: D(1A) dopamine receptor (Homo sapiens) (UniProt P21728); details: Compound concentration 10.0 uM
[13] = molecular target: D(2) dopamine receptor (Homo sapiens) (UniProt P14416); details: Compound concentration 10.0 uM
[14] = molecular target: D(3) dopamine receptor (Homo sapiens) (UniProt P35462); details: Compound concentration 10.0 uM
[15] = molecular target: Sodium-dependent serotonin transporter (Homo sapiens) (UniProt P31645); details: Compound concentration 10.0 uM
[16] = molecular target: Sodium-dependent noradrenaline transporter (Homo sapiens) (UniProt P23975); details: Compound concentration 10.0 uM
[17] = molecular target: T1, Sodium-dependent dopamine transporter; details: Compound concentration 10.0 uM
[18] = molecular target: Mu-type opioid receptor (Homo sapiens) (UniProt P35372); details: Compound concentration 10.0 uM
[19] = molecular target: Delta-type opioid receptor (Homo sapiens) (UniProt P41143); details: Compound concentration 10.0 uM
[20] = molecular target: Kappa-type opioid receptor (Homo sapiens) (UniProt P41145); details: Compound concentration 10.0 uM
[21] = molecular target: GABA-A receptor; anion channel (Rattus norvegicus) (UniProt O09028+P15431+P18506+P18508+P19969+P20236+P23574+P23576+P28471+P28473+P30191+P62813+P63079+P63138+Q91ZM7+Q9ES14); details: Compound concentration 10.0 uM
[22] = molecular target: Histamine H1 receptor (Homo sapiens) (UniProt P35367); details: Compound concentration 10.0 uM
[23] = molecular target: Histamine H2 receptor (Homo sapiens) (UniProt P25021); details: Compound concentration 10.0 uM
[24] = molecular target: Histamine H3 receptor (Homo sapiens) (UniProt Q9Y5N1); details: Compound concentration 10.0 uM
[25] = molecular target: Histamine H4 receptor (Homo sapiens) (UniProt Q9H3N8); details: Compound concentration 10.0 uM
[26] = molecular target: Alpha-1A adrenergic receptor (Homo sapiens) (UniProt P35348); details: Compound concentration 10.0 uM
[27] = molecular target: Alpha-1B adrenergic receptor (Homo sapiens) (UniProt P35368); details: Compound concentration 10.0 uM
[28] = molecular target: Alpha-2A adrenergic receptor (Homo sapiens) (UniProt P08913); details: Compound concentration 10.0 uM
[29] = molecular target: Alpha-2B adrenergic receptor (Homo sapiens) (UniProt P18089); details: Compound concentration 10.0 uM
[30] = molecular target: Alpha-2C adrenergic receptor (Homo sapiens) (UniProt P18825); details: Compound concentration 10.0 uM
[31] = molecular target: Beta-1 adrenergic receptor (Homo sapiens) (UniProt P08588); details: Compound concentration 10.0 uM
[32] = molecular target: Beta-2 adrenergic receptor (Homo sapiens) (UniProt P07550); details: Compound concentration 10.0 uM
[33] = molecular target: Muscarinic acetylcholine receptor M1 (Homo sapiens) (UniProt P11229); details: Compound concentration 10.0 uM
[34] = molecular target: Muscarinic acetylcholine receptor M2 (Homo sapiens) (UniProt P08172); details: Compound concentration 10.0 uM
[35] = molecular target: Muscarinic acetylcholine receptor M3 (Homo sapiens) (UniProt P20309); details: Compound concentration 10.0 uM
[36] = molecular target: Muscarinic acetylcholine receptor M4 (Homo sapiens) (UniProt P08173); details: Compound concentration 10.0 uM
[37] = molecular target: Muscarinic acetylcholine receptor M5 (Homo sapiens) (UniProt P08912); details: Compound concentration 10.0 uM
[38] = molecular target: Beta-3 adrenergic receptor (Homo sapiens) (UniProt P13945); details: Compound concentration 10.0 uM
Rattus norvegicus = species on record: Rattus norvegicus; details: Compound concentration 10.0 uM
[39] = molecular target: Alpha-1D adrenergic receptor (Homo sapiens) (UniProt P25100); details: Compound concentration 10.0 uM
[40] = molecular target: Sigma intracellular receptor 2 (Homo sapiens) (UniProt Q5BJF2); details: Compound concentration 10.0 uM
Sequence of Sigma intracellular receptor 2 (Homo sapiens) (Q5BJF2 whole entry): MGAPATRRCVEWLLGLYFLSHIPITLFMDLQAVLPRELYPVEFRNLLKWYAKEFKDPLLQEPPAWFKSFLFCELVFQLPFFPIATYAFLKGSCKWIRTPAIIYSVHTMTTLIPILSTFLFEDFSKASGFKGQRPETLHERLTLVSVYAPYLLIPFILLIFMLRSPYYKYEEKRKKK

T1 sequence (Q01959 whole entry): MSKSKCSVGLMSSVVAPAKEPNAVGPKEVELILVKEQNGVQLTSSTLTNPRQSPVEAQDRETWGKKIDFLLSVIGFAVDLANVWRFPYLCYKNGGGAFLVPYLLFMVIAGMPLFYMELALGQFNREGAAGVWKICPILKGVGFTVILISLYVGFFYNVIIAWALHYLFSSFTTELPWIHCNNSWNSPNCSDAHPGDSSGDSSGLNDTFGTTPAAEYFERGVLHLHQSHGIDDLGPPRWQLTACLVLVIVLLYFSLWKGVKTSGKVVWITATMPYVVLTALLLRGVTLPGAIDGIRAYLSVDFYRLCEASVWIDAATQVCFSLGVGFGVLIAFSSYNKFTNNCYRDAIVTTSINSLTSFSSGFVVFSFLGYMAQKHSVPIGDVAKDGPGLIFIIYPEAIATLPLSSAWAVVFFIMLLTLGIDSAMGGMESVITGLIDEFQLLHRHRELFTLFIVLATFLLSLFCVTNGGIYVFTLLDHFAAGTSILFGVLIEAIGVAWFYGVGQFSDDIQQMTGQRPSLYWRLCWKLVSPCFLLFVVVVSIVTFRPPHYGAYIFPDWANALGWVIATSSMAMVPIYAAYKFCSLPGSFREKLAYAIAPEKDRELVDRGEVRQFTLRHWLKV
Sequence of Sodium-dependent noradrenaline transporter (Homo sapiens) (P23975 whole entry): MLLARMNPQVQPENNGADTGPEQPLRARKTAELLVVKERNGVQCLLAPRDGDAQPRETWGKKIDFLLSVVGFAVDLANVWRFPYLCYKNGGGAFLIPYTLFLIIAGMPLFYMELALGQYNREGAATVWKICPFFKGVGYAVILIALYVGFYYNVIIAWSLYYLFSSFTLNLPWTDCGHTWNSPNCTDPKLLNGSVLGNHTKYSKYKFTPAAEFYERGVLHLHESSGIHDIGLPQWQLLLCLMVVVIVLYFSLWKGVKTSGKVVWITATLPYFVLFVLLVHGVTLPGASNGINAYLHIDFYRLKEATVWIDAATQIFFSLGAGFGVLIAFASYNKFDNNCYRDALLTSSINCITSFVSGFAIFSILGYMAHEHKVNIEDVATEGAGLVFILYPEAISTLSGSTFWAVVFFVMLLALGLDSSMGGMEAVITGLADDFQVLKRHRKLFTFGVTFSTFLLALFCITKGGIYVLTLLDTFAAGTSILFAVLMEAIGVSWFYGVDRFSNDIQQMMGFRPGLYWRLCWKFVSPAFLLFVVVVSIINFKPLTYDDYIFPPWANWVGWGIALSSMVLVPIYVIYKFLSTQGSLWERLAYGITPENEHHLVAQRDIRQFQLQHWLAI
Sequence of Alpha-2C adrenergic receptor (Homo sapiens) (P18825 whole entry): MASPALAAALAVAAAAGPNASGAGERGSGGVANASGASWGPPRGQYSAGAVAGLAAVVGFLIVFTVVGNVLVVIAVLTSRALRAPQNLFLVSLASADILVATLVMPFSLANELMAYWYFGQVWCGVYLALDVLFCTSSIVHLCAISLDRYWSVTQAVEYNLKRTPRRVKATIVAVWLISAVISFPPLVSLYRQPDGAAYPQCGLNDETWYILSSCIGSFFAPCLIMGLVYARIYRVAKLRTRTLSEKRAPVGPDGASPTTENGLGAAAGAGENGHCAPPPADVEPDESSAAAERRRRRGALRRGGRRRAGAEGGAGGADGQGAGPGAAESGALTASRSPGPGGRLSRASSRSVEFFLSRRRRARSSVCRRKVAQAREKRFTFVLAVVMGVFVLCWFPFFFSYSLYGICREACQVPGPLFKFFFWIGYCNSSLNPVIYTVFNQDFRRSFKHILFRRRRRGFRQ
Sequence of 5-hydroxytryptamine receptor 7 (Homo sapiens) (P34969 whole entry): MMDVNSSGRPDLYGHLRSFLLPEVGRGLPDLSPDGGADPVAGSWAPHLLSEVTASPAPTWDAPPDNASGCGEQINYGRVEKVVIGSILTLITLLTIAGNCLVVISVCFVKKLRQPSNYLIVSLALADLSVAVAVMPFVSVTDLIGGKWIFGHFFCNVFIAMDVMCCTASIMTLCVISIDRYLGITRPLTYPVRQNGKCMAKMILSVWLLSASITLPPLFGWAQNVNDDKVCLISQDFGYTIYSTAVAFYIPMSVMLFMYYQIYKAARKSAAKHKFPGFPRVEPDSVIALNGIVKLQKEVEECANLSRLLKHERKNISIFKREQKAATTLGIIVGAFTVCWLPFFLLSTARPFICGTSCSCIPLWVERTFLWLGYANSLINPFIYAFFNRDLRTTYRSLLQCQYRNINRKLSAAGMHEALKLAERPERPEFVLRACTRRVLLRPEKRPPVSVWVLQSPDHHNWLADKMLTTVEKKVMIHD
Sequence of Sodium-dependent serotonin transporter (Homo sapiens) (P31645 whole entry, looked up): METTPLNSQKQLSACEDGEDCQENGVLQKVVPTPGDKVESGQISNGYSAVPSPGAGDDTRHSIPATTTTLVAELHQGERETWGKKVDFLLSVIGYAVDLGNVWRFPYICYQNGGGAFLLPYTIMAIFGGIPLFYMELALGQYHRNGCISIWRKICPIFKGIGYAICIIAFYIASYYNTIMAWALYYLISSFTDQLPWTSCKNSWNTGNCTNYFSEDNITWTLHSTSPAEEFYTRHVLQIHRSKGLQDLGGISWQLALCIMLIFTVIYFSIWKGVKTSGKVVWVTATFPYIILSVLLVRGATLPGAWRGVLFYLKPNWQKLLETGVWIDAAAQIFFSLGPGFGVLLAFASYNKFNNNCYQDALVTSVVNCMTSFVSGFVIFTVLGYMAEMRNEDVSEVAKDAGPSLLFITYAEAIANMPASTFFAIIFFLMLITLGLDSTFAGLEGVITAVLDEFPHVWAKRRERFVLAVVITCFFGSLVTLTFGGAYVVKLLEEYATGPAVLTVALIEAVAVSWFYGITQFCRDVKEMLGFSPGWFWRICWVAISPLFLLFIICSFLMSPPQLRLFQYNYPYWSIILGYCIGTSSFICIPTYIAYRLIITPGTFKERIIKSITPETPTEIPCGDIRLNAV
Sequence of Alpha-1A adrenergic receptor (Homo sapiens) (P35348 whole entry): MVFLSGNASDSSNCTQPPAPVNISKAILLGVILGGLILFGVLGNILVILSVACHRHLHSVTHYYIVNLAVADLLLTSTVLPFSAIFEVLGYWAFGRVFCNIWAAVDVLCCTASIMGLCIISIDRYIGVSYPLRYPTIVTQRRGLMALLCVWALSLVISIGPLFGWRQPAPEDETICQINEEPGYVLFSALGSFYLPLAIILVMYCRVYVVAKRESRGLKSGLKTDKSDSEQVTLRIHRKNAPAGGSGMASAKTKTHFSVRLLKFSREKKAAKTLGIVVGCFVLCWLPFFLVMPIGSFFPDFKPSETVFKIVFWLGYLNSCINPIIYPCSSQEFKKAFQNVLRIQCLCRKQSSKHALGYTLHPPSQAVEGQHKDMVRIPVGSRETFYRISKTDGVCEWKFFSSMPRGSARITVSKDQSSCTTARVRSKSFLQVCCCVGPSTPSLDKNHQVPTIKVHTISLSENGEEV
Sequence of Muscarinic acetylcholine receptor M5 (Homo sapiens) (P08912 whole entry): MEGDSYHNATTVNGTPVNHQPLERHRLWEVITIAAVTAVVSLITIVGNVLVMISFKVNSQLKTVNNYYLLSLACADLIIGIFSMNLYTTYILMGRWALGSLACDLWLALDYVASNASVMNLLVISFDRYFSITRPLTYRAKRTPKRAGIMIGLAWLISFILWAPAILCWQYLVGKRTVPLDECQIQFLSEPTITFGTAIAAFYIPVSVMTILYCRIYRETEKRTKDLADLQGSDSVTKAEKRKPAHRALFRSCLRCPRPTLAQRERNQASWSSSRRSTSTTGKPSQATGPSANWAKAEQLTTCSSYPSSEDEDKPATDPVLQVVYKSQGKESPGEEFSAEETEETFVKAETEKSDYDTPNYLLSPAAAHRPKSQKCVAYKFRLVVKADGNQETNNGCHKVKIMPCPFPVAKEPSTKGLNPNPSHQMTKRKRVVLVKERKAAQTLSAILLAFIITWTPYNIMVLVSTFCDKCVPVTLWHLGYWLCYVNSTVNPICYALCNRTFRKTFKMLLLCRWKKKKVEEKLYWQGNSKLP
Sequence of 5-hydroxytryptamine receptor 1E (Homo sapiens) (P28566 whole entry): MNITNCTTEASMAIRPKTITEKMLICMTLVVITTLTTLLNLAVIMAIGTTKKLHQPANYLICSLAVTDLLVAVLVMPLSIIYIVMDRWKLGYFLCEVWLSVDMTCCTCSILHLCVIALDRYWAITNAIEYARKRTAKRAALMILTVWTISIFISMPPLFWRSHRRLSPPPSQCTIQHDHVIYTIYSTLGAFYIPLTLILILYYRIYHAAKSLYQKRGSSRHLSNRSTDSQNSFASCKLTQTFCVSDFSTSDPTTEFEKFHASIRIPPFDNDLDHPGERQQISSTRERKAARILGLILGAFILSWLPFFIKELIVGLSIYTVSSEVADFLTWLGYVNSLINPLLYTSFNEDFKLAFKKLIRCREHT
Sequence of Muscarinic acetylcholine receptor M3 (Homo sapiens) (P20309 whole entry, looked up): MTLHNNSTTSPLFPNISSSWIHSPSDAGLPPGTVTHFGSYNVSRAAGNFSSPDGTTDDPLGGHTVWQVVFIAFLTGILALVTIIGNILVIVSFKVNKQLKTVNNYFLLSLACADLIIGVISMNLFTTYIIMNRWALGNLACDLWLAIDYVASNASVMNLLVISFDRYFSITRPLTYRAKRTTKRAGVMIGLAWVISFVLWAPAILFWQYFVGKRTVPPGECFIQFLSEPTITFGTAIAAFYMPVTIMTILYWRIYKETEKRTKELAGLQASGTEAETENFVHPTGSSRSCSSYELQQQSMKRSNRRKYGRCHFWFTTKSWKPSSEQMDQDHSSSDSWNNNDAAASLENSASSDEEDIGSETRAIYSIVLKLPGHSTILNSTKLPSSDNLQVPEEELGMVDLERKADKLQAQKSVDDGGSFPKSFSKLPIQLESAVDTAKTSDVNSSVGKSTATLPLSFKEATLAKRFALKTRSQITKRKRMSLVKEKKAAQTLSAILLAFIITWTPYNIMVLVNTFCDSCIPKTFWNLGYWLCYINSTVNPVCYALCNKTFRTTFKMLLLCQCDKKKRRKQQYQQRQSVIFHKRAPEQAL

O=C(Nc1ccc(-n2nc(-c3cccnc3)cc2C(F)(F)F)cn1)c1ccc(-c2ccccc2)c(F)c1 [BI 2049]
< 5: pKi [1]
> 3 µM (not active): IC50 [2]
inactive: inhibition [3] -3.06% | inhibition [4] -0.85% | inhibition [5] -9.83% | inhibition [6] -4.45% | inhibition [7] -1.62% | inhibition [8] 9.91% | inhibition [9] -8.89% | inhibition [10] -2.92% | inhibition [11] 6.21% | inhibition [12] 4.32% | inhibition [13] -9.24% | inhibition [14] 8.38% | inhibition [15] 9.16% | inhibition [16] -9.35% | inhibition [18] 7.17% | inhibition [19] 3.77% | inhibition [20] 13.8% | inhibition [21] 16.1% | inhibition [22] 3.07% | inhibition [23] -5.62% | inhibition [24] -1.54% | inhibition [25] -9.32% | inhibition [26] 1.9% | inhibition [27] -3.49% | inhibition [28] 8.3% | inhibition [29] 1.26% | inhibition [30] 6.33% | inhibition [31] 0.23% | inhibition [32] 5.14% | inhibition [33] 25.5% | inhibition [34] 9.94% | inhibition [35] 3.71% | inhibition [36] 0.8% | inhibition [37] 0.37% | inhibition [38] -0.78% | inhibition (Rattus norvegicus) 15% | inhibition [39] 18.3% | inhibition [40] 30.1%
> 10 µM: Ki ([1]; read-out: Ki)
active: inhibition [17] 68.2%
